Laboratory results from ChEMBL document CHEMBL1201862, “PubChem BioAssay data set” (2004).
Counter-ions that a name gives are not always drawn.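 48-hour exposure; five concentrations; linearly interpolated endpoints. GI50 = concentration required for 50% inhibition of growth.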 Calls of active or inactive are those of the source. Cut-off read from the data, not from the text of the source: active = GI50 up to about 1.1 µM and inactive = higher.

Columns and labels:
Experiment in all cases: inhibition of tumour cell growth, NCI panel, 48 h
DMS-273 = system: DMS-273
SNB-75 = system: SNB-75
NCI-H226 = system: NCI-H226
Malme-3M = system: Malme-3M
HT-29 = system: HT-29
NCI-H522 = system: NCI-H522
UO-31 = system: UO-31
SNB-19 = system: SNB-19
HOP-62 = system: HOP-62
U-251 = system: U-251
SK-MEL-5 = system: SK-MEL-5
SF-295 = system: SF-295
SR = system: SR
OVCAR-3 = system: OVCAR-3
EKVX = system: EKVX
SN12C = system: SN12C
A549 = system: A549
SK-OV-3 = system: SK-OV-3
HL-60 = system: HL-60
KM12 = system: KM12
HOP-92 = system: HOP-92
LOX IMVI = system: LOX IMVI
DLD-1 = system: DLD-1
OVCAR-4 = system: OVCAR-4
COLO 205 = system: COLO 205
SF-268 = system: SF-268
NCI-H23 = system: NCI-H23
ACHN = system: ACHN
SW-620 = system: SW-620
NCI-H460 = system: NCI-H460
UACC-62 = system: UACC-62
786-0 = system: 786-0
SF-539 = system: SF-539
CAKI-1 = system: CAKI-1
UACC-257 = system: UACC-257
IGROV-1 = system: IGROV-1
CCRF-CEM = system: CCRF-CEM
SK-MEL-2 = system: SK-MEL-2
KM-20L2 = system: KM-20L2
RPMI-8226 = system: RPMI-8226
HCT-116 = system: HCT-116
HCC 2998 = system: HCC 2998
OVCAR-8 = system: OVCAR-8
K562 = system: K562
M14 = system: M14
MOLT-4 = system: MOLT-4
HOP-18 = system: HOP-18
SNB-78 = system: SNB-78
TK-10 = system: TK-10
LXFL 529 = system: LXFL 529
HCT-15 = system: HCT-15
SK-MEL-28 = system: SK-MEL-28
XF498 = system: XF498
RXF 393 = system: RXF 393
OVCAR-5 = system: OVCAR-5
DMS-114 = system: DMS-114
A498 = system: A498
MDA-MB-435 = system: MDA-MB-435

Measured: GI50

COc1ccc(NC(=O)C(=O)C2CNC(=O)NC2=O)c(OC)c1 (stereo unspecified)
inactive: DMS-273 > 100 µM | SNB-75 > 100 µM | NCI-H226 > 100 µM | Malme-3M > 100 µM | HT-29 > 100 µM | NCI-H522 > 100 µM | UO-31 > 100 µM | SNB-19 > 100 µM | HOP-62 > 100 µM | U-251 > 100 µM | SK-MEL-5 > 100 µM | SF-295 > 100 µM | SR > 100 µM | OVCAR-3 > 100 µM | EKVX > 100 µM | SN12C > 100 µM | A549 > 100 µM | SK-OV-3 > 100 µM | HL-60 > 100 µM | KM12 > 100 µM | HOP-92 > 100 µM | LOX IMVI > 100 µM | DLD-1 > 100 µM | OVCAR-4 > 100 µM | COLO 205 > 100 µM | SF-268 > 100 µM | NCI-H23 > 100 µM | ACHN > 100 µM | SW-620 > 100 µM | NCI-H460 > 100 µM | UACC-62 > 100 µM | 786-0 > 100 µM | SF-539 > 100 µM | CAKI-1 > 100 µM | UACC-257 > 100 µM | IGROV-1 > 100 µM | CCRF-CEM > 100 µM | SK-MEL-2 > 100 µM | KM-20L2 > 100 µM | RPMI-8226 > 100 µM | HCT-116 > 100 µM | HCC 2998 > 100 µM | OVCAR-8 > 100 µM | K562 > 100 µM | M14 > 100 µM | MOLT-4 > 100 µM | HOP-18 > 100 µM | SNB-78 > 100 µM | TK-10 > 100 µM | LXFL 529 > 100 µM | SK-MEL-28 > 100 µM | XF498 > 100 µM | RXF 393 > 100 µM | OVCAR-5 > 100 µM | DMS-114 > 100 µM
> 100 µM: HCT-15

O=C1c2c(O)ccc(O)c2C(=O)c2c(NCCNCCO)ccc(NCCNCCO)c21 [MITOXANTRONE HYDROCHLORIDE]
active: DMS-273 0.0119 µM | NCI-H226 0.0153 µM | A498 0.0619 µM | U-251 0.0091 µM | SR 0.00764 µM | HL-60 0.0103 µM | HOP-92 0.0177 µM | DLD-1 0.491 µM | ACHN 0.0115 µM | CAKI-1 0.00899 µM | CCRF-CEM 0.00598 µM | KM-20L2 0.384 µM | HCT-116 0.0553 µM | K562 0.118 µM | HOP-18 0.126 µM | SNB-78 0.204 µM | TK-10 0.423 µM | XF498 0.0136 µM | MDA-MB-435 0.471 µM
inactive: UACC-257 1.89 µM
